The results in this text go back to patent US20230112418A1, “COMPOUND AND RADIOACTIVE LABELING COMPOUND” (NIHON MEDI-PHYSICS CO., LTD., priority 2020, published 2023).

Molecules are shown by their SMILES. Like-named read-outs stand apart in the source and are kept apart here.

The target of one data set is T1, CA-IX (Homo sapiens, UniProt Q16790).
T1 construct: HT-29 cells (CA-IX highly expressing cells, purchased from Sumitomo Dainippon Pharma Co., Ltd.); host or cells: HT-29 cells
The data set can be described thus: Cell binding inhibition assay (acetazolamide as inhibitor, HT-29 cells). As to conditions: read-out: IC50 (nM, mean ± SD). How it is done: In this evaluation, binding properties of [^111In]IS-DO2A-ALB1 to DO2A-ALB4 and [^111In]DO3A-IS1 with respect to CA-IX were evaluated.
Specifically, HT-29 cells (CA-IX highly expressing cells, purchased from Sumitomo Dainippon Pharma Co., Ltd.) were seeded together with a medium at 4.0×10^5 cells/well in a 12 well plate, and cultured at 37° C. for 24 hours in an atmosphere of 5% carbon dioxide.
Subsequently, the medium was removed, and a medium containing any one of the radioactive labeled compounds of Examples 1 to 4 and Comparative Example 1 (37 kBq/mL) was added to each well in an amount of 1 mL such that the acetazolamide concentration was 50000 to 0.00512 nM as an inhibitor, and the sample was cultured at 37° C. for two hours in an atmosphere of 5% carbon dioxide. In addition, a sample containing the radioactive labeled compound and not containing acetazolamide was also cultured under similar conditions. The experiment was performed with each concentration group at n=6.
Subsequently, the medium was removed, the residue was washed with PBS (1 mL), and cells were lysed with a 1 N sodium hydroxide aqueous solution (200 μL×2) to obtain a cell lysate. Then, the amount of radioactivity in the cell lysate and that in the medium containing the radioactive labeled compound were each measured with a gamma counter (type name: Wallac 2470 Wizard manufactured by PerkinElmer, Massachusetts, U.S.A.). Separately from this, the total protein mass (mg protein) in the cell lysate was quantified by a BCA method. […] Results are illustrated in Table 2 below as mean±standard deviation (mean±SD).
That is, the […] the calculated value of IC50, the higher affinity between the radioactive labeled compound and CA-IX.

Data set [1] in a line: Distribution coefficient (1-octanol/PBS). In kind it is physicochemical. As to conditions: log10, 1-octanol/PBS pH 7.4, n=5. How it is done: The radioactive labeled compound (740 kBq) of any one of Examples and Comparative Examples was added to a mixed liquid of PBS (3 mL, pH 7.4 (20° C.)) and 1-octanol (3 mL), and the mixture was vortexed for two minutes and then centrifuged at 4000×g for five minutes. Thereafter, 1 mL of the 1-octanol layer and 500 μL of the PBS layer were collected, and the amount of radioactivity of each of the layers was measured with a gamma counter (n=5).
As a calculation formula of a distribution coefficient, “log10 [(amount of radioactivity of 1-octanol layer)/(amount of radioactivity of PBS layer×2)]” was used. Results are illustrated in Table 1 below as mean±standard deviation (mean±SD).
[^111In]In-PtDA (111 kBq) was added to a mixed liquid of PBS (pH 7.4, 3 mL) and 1-octanol (3 mL). The mixture was dispersed by vortexing for two minutes, and then centrifuged at 4000×g for five minutes. 1 mL of the 1-octanol layer and 1 mL of the PBS layer were collected, and the radioactivity of each of the layers was measured with a gamma counter (n=3).
As a calculation formula, “(distribution coefficient)=[…]) [(radioactivity of 1-octanol layer [kBq])/(radioactivity of PBS layer [kBq])]” was used.

A further data set has as its system HT-29 tumor-bearing mice. Put plainly: In vivo radioactivity distribution assay in HT-29 tumor-bearing mice. An excerpt:
Under 2% isoflurane anesthesia, a suspension of HT-29 cells (5×10^6 cells/mouse) expressing CA-IX was subcutaneously injected into the left shoulder of each of 5-week-old male BALB/c nude mice (purchased from SHIMIZU Laboratory Supplies CO., LTD.). The composition of the suspension was a mixture of HT-29 cells/DMEM medium (manufactured by Thermo Fisher Scientific Inc.) and a matrix product (Geltrex (registered trademark) (manufactured by Thermo Fisher) at a volume ratio of 1:1.
Thereafter, the subcutaneously injected mice were raised for 14 days in a raising room that switches day and night every 12 hours with normal food and tap water to obtain HT-29 tumor-bearing mice.
Then, a saline solution (259 kBq, 100 μL, containing 3 mg of ascorbic acid) of each of the radioactive labeled compounds of Examples 1 to 3 or a saline solution (259 kBq, 100 μL, containing 1 mg of ascorbic acid) of the radioactive labeled compound of Comparative Example 1 was injected into each of the mice via the tail vein thereof. The mice (n=5 in each group) were euthanized 1, 4, 8, 24, 48, 96, or 192 hours after the injection, blood, organs, and tumor sites were collected, and the masses thereof were measured. The amount of radioactivity was measured with a gamma counter.
The degree of accumulation of the radioactive labeled compound is indicated as a value (% injected dose/g) obtained by dividing the percentage (% ID) of the amount of radioactivity with respect to the amount of injected radioactivity (injected dose) by the mass of blood or the mass of an organ (g). […] Results are illustrated in FIG. 1.

In data set [2] the test system is LNCaP tumor transplanted mice. Put plainly: Suppression of tumor growth by 225Ac-labeled compound. In kind it is in vivo. As to conditions: 20 kBq i.v., FIG. 9. How it is done:
[^225Ac]Ac-PSMA-DA1 (20 kBq) or [^225Ac]Ac-PSMA-DB (20 kBq) obtained by the above-described method was dissolved in a 5% ethanol-containing acetate buffer (158 mM, pH 6.5, 100 μL), and the solution was injected into each of the LNCaP tumor transplanted mice via the tail vein thereof (n=6 or 5). As a control group, 100 μL of 5% ethanol-containing acetate buffer (158 mM, pH 6.5) was injected into each of the LNCaP tumor transplanted mice via the tail vein thereof (n=4).
After the injection of the ^225Ac-labeled compound, a tumor volume and a body weight were measured three times per week. The tumor volumes on the start day of injection of the ^225Ac-labeled compound were 75.3±26.0, 80.6±20.8, and 91.1±15.9 mm^3 in the [^225Ac]Ac-PSMA-DA1 injection group, the [^225Ac]Ac-PSMA-DB injection group, and the 5% ethanol-containing acetate buffer injection group, respectively.

The test system of data set [3] is MDA-MB-231 tumor-bearing mice. The data set can be described thus: In vivo radioactivity distribution assay in MDA-MB-231 tumor-bearing mice. As to conditions: 24 hours after injection. How it is done: In a similar manner to Evaluation 3, a suspension of MDA-MB-231 cells (1×10^7 cells/mouse) having low expression of CA-IX was subcutaneously injected into the left shoulder of each of 5-week-old male BALB/c nude mice to obtain MDA-MB-231 tumor-bearing mice.
Then, a saline solution (40 kBq, 100 μL, containing 3 mg of ascorbic acid) of the radioactive labeled compound of Example 1 was injected into each of the mice via the tail vein thereof. Mice (n=5 in each group) were euthanized 24 hours after the injection, blood, organs, and tumor sites were collected, and the masses thereof were measured. The amount of radioactivity was measured with a gamma counter.
The degree of accumulation of the radioactive labeled compound is indicated as a value (% ID/g) obtained by dividing the percentage (% ID) of the amount of radioactivity with respect to the amount of injected radioactivity (injected dose) by the mass of blood or the mass of an organ (g). […] Results are illustrated in Table 3 as mean±standard deviation (n=5).

Setting [4] is: IC50 of inhibitor acetazolamide against binding of the radioactive labeled compound to HT-29 cells, 2 h, larger value = higher affinity of labeled compound for CA-IX.

For the compound `NS(=O)(=O)c1nn2cc(-c3ccc(NC(=O)CN4CCN(CC(=O)O)CCN(CC(=O)N[C@@H](CCCCNC(=O)CCCc5ccc(Br)cc5)C(=O)O)CCN(CC(=O)O)CC4)cc3)nc2s1.[111In+3]` [[^111In]IS-DO2A-ALB3], at CA-IX (setting [4]), the IC50 is 288 ± 45.7 nM. Further, in data set [1], the “Distribution coefficient (mean ± SD)” value was −1.90 ± 0.01.

Take `NS(=O)(=O)c1nn2cc(-c3ccc(NC(=O)CN4CCN(CC(=O)[O-])CCN(CC(=O)[O-])CCN(CC(=O)[O-])CC4)cc3)nc2s1.[111In+3]` [[^111In]DO3A-IS1]: the “Amount accumulated in the kidney (in words)” value in the data set on HT-29 tumor-bearing mice (FIG. 1) is “very large as compared with the results of Examples”. Moreover, the “Amount accumulated in the tumor expressing CA-IX (in words)” value with HT-29 tumor-bearing mice (FIG. 1, HT-29 tumor) is on record as “poor”.

On to `O=C([O-])CN1CCN(C(CCC(=O)NCCCC[C@H](NC(=O)N[C@@H](CCC(=O)O)C(=O)O)C(=O)O)C(=O)[O-])CCN(CC(=O)[O-])CCN(C(CCC(=O)N[C@@H](CCCCNC(=O)CCCc2ccc(I)cc2)C(=O)O)C(=O)[O-])CC1.[225Ac+3]` (stereo partly drawn) [[^225Ac]Ac-PSMA-DA1], for which, in data set [2], the “Course of tumor growth (in words)” value was “the tumor hardly grew, and continuous growth suppression was observed up to six weeks after the injection”; the “Decrease in body weight (in words)” value is “transient”; the “Tumor growth compared with control group (in words)” value was “tumor growth was significantly suppressed”.

In the case of `Cc1ccc(CCCC(=O)NCCCC[C@H](NC(=O)CN2CCN(CC(=O)O)CCN(CC(=O)Nc3ccc(-c4cn5nc(S(N)(=O)=O)sc5n4)cc3)CCN(CC(=O)O)CC2)C(=O)O)cc1.[111In+3]` [[^111In]IS-DO2A-ALB2, [^111In] indium(III) (S)-2,2′-(4-(2-((1-carboxy-5-(4-(4-tolyl)butanamide)pentyl)amino)-2-oxoethyl)-10-(2-oxo-2-((4-(2-sulfamoylimidazo[2,1-b][1,3,4]thiadiazol-6-yl)phenyl)amino)ethyl)-1,4,7,10-tetraazacyclododecane-1,7-diyl) diacetic acid], on CA-IX (setting [4]), the IC50 was 165 ± 60.6 nM. Moreover, in data set [1], the “Distribution coefficient (mean ± SD)” value is recorded as −2.16 ± 0.04.

On to `NS(=O)(=O)c1nn2cc(-c3ccc(NC(=O)CN4CCN(CC(=O)O)CCN(CC(=O)O)CCN(CC(=O)O)CC4)cc3)nc2s1` [[^111In]DO3A-IS1, metal not drawn], for which, on CA-IX, the IC50 came out at 127 ± 19.6 nM. Moreover, the “Distribution coefficient (mean ± SD)” value in data set [1] was −3.72 ± 0.05.

On to `O=C([O-])CN1CCN(C(CCC(=O)NCCCC[C@H](NC(=O)N[C@@H](CCC(=O)O)C(=O)O)C(=O)O)C(=O)[O-])CCN(CC(=O)[O-])CCN(C(CCC(=O)Nc2ccccc2)C(=O)[O-])CC1.[225Ac+3]` (stereo partly drawn) [[^225Ac]Ac-PSMA-DB], for which, in data set [2], the “Decrease in body weight (in words)” value is “temporarily accelerated, but there was no sign of recovery thereafter” and the “Tumor growth compared with control group (in words)” value is “tumor growth was significantly suppressed”.

As for `NS(=O)(=O)c1nn2cc(-c3ccc(NC(=O)CN4CCN(CC(=O)O)CCN(CC(=O)N[C@@H](CCCCNC(=O)CCCc5ccccc5)C(=O)O)CCN(CC(=O)O)CC4)cc3)nc2s1.[111In+3]` [[^111In]IS-DO2A-ALB4, [^111In] indium(III) (S)-2,2′-(−(2-((1-carboxy-5-(4-phenylbutanamide)pentyl)amino)-2-oxoethyl)-10-(2-oxo-2-((4-(2-sulfamoylimidazo[2,1-b][1,3,4]thiadiazol-6-yl)phenyl)amino)ethyl)-1,4,7,10-tetraazacyclododecane-1,7-diyl) diacetic acid], the IC50 at CA-IX (setting [4]) was found to be 105 ± 8 nM. For the same compound, the “Distribution coefficient (mean ± SD)” value in data set [1] is on record as −2.36 ± 0.01.

Turning to `NS(=O)(=O)c1nn2cc(-c3ccc(NC(=O)CN4CCN(CC(=O)O)CCN(CC(=O)N[C@@H](CCCCNC(=O)CCCc5ccc(I)cc5)C(=O)O)CCN(CC(=O)O)CC4)cc3)nc2s1.[111In+3]` [[^111In]IS-DO2A-ALB1], in data set [3], the “Radioactivity accumulated amount: Blood” value is recorded as 5.50 ± 1.17 % ID/g, the “Radioactivity accumulated amount: Brain” value is given as 0.34 ± 0.03 % ID/g, the “Radioactivity accumulated amount: Heart” value turned out to be 3.12 ± 0.25 % ID/g and the “Radioactivity accumulated amount: Intestinal” value is recorded as 4.65 ± 0.48 % ID/g. Also, in data set [3], the “Radioactivity accumulated amount: Kidney” value was 11.42 ± 0.65 % ID/g, the “Radioactivity accumulated amount: Liver” value amounted to 2.64 ± 0.47 % ID/g, the “Radioactivity accumulated amount: Lung” value turned out to be 7.28 ± 0.85 % ID/g and the “Radioactivity accumulated amount: Muscle” value turned out to be 1.21 ± 0.22 % ID/g. Also, in data set [3], the “Radioactivity accumulated amount: Pancreas” value came out at 2.27 ± 0.30 % ID/g, the “Radioactivity accumulated amount: Spleen” value is given as 2.04 ± 0.45 % ID/g, the “Radioactivity accumulated amount: Stomach” value stood at 4.44 ± 0.48 % ID and the “Radioactivity accumulated amount: Tumor (MDA-MB-231)” value was found to be 5.05 ± 0.59 % ID/g. In addition, in data set [3], the Tumor/blood radioactivity ratio worked out at 0.94 ± 0.17, the Tumor/kidney radioactivity ratio was found to be 0.44 ± 0.05 and the Tumor/muscle radioactivity ratio turned out to be 4.22 ± 0.47. Further, the “Accumulation in the HT-29 tumor” value with HT-29 tumor-bearing mice (value of Evaluation 3 quoted for comparison with Table 3) was found to be 10.73 % ID/g. Further, the IC50 at CA-IX (setting [4]) turned out to be 571.4 ± 2.6 nM. Besides, the “Distribution coefficient (mean ± SD)” value in data set [1] is given as −1.70 ± 0.01.

The IC50 is the midpoint of a concentration-inhibition curve.
